Data set [1] in a line: Systemic clearance in analbuminemic Nagase rat plasma at 1 mg/kg, iv administered as single dose by high-performance liquid chromatography. It is filed as ADME, organism-based. Also noted: dose 1 mg/kg, route intravenous.
Data set [2] is described as follows: Volume of distribution at steady state in analbuminemic Nagase rat plasma at 1 mg/kg, iv administered as single dose by high-performance liquid chromatography. It is filed as ADME, organism-based. Also noted: dose 1 mg/kg, route intravenous. The conditions noted are these: read-out: Vdss.
Data set [3] can be described thus: Systemic clearance in Sprague-Dawley rat plasma at 1 mg/kg, iv administered as single dose by high-performance liquid chromatography. Also noted: dose 1 mg/kg, route intravenous. It is filed as ADME, organism-based.
The nature of data set [4]: Volume of distribution at steady state in Sprague-Dawley rat plasma at 1 mg/kg, iv administered as single dose by high-performance liquid chromatography. It is filed as ADME, organism-based. Also noted: dose 1 mg/kg, route intravenous. The conditions noted are these: read-out: Vdss.
The subject of data set [5] is Rattus norvegicus. Description: Plasma protein binding in analbuminemic Nagase rat at 1 mg/kg, iv administered as single dose by high-performance liquid chromatography. It is filed as ADME, organism-based. Also noted: dose 1 mg/kg, route intravenous. The conditions noted are these: in vivo.
In data set [6] the test system is Rattus norvegicus. Description: Plasma protein binding in Sprague-Dawley rat at 1 mg/kg, iv administered as single dose by high-performance liquid chromatography. It is filed as ADME, organism-based. Also noted: dose 1 mg/kg, route intravenous. The conditions noted are these: in vivo.
The target of data set [7] is Albumin (Homo sapiens, UniProt P02768). As to the kind of experiment: Binding affinity to human serum albumin in cell-free system.
For data set [8], the system named is Rattus norvegicus. As to the kind of experiment: Binding affinity to gamma globulin in rat plasma at 1 mg/kg, iv administered as single dose. It is filed as functional.
In data set [9] the test system is Rattus norvegicus. Description: Binding affinity to HDL in rat plasma at 1 mg/kg, iv administered as single dose. It is filed as ADME, organism-based. Also noted: dose 1 mg/kg, route intravenous. To be noted: in vivo.

Starred links: 1 amine or outer side, 2 acyl side, 3 side chain; linkers in the order of their positions; H or OH if unused. Positions of bridges follow the written chain, without caps; N, C: chain ends. Non-standard residues stand in square brackets, D forms with d. Residues, ends and D or L forms follow the SMILES beside them. *: point of attachment. hTyr(3S-OH,4S-OH,3'-OSO3H) = N[C@H](C(=O)O)[C@H](O)[C@@H](O)c1ccc(O)c(OS(=O)(=O)O)c1; Orn(4R-OH,5R-OH) = O=C([C@H](C[C@@H](O)[C@@H](O)N[*:3])N[*:1])[*:2]; Pro(3S-OH,4S-Me) = C[C@H]1CN[C@H](C(=O)O)[C@H]1O; X1 = CCCCCOc1ccc(-c2cc(-c3ccc(C(=O)*)cc3)no2)cc1; Gln(3R-OH) = NC(=O)C[C@@H](O)[C@H](N)C(=O)O; Hyp = O=C(O)[C@@H]1C[C@@H](O)CN1

Sequence of Albumin (P02768 whole entry): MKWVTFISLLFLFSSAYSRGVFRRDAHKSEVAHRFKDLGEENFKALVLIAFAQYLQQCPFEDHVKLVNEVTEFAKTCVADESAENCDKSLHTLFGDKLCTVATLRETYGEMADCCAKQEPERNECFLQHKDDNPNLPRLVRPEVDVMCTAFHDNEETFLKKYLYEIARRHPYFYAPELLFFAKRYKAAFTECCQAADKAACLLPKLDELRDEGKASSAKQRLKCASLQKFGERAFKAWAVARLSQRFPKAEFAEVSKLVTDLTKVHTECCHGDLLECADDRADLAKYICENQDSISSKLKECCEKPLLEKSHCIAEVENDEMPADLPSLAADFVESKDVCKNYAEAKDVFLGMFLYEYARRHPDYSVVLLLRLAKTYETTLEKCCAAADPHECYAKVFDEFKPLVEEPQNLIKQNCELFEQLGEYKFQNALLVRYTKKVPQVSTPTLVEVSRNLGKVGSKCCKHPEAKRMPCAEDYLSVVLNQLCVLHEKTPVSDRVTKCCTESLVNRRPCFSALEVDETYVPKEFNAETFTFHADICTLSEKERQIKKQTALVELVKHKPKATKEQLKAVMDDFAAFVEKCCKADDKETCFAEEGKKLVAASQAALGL

Turning to `CCCCCOc1ccc(-c2cc(-c3ccc(C(=O)N[C@H]4C[C@@H](O)[C@@H](O)NC(=O)[C@@H]5[C@@H](O)[C@@H](C)CN5C(=O)[C@H]([C@H](O)CC(N)=O)NC(=O)[C@H]([C@H](O)[C@@H](O)c5ccc(O)c(OS(=O)(=O)O)c5)NC(=O)[C@@H]5C[C@@H](O)CN5C(=O)[C@H]([C@@H](C)O)NC4=O)cc3)no2)cc1` [MICAFUNGIN] (X1-[Orn(4R-OH,5R-OH)]T[Hyp][hTyr(3S-OH,4S-OH,3'-OSO3H)][Gln(3R-OH)][Pro(3S-OH,4S-Me)]; lactam 1-C), the clearance – broadly, the volume of plasma or blood freed of the substance per unit of time – turned out to be 1.2 mL/min/kg in [1] and 1.15 mL/min/kg in [3]. Besides, the Vd in data set [2] was 0.52 L/kg; in data set [4] it was 0.54 L/kg. Also, the Activity amounted to 99.8% in data set [5]; 99.7% in [6]; 99.7% in [7]; 35.1% in data set [8]; 97.4% in data set [9].

(Values after ChEMBL document CHEMBL1275491, “Role of plasma proteins in pharmacokinetics of micafungin, an antifungal antibiotic, in analbuminemic rats” (Antimicrob Agents Chemother, 2008).)
